In patent US4576943A, “Pyrazolo[1,5-a]pyrimidines” (American Cyanamid Company, priority 1984, dated 1986):

What was measured:
[1] = Hypotensive activity in spontaneously hypertensive rats; assay type: in vivo, spontaneously hypertensive rats of the Okamoto strain; conditions: 100 mg/kg by gavage, two doses 24 hours apart, measured at 28 hours after the initial dose; one or two rats
Protocol: The novel compounds of the present invention are active hypotensive agents and were tested for hypotensive activity by the method of P. S. Chan and D. Poorvin, Clinical and Experimental Hypertension, 1 (6), 817-830 (1979). […] One to 3 rats are used per test compound. A rat is dosed by gavage with a test compound suspended in 2% pre-boiled starch at a concentration of 50 mg/ml, at a dose of 100 mg/kg of body weight or less, with 0.9% sodium chloride loading at a dose of 25 ml/kg of body weight. A second identical dose of the test compound, without sodium chloride loading is given 24 hours later. At 28 hours after the initial dose the mean arterial blood pressure is measured by the method of Chan and Poorvin (see above). The procedure is repeated in a second and third rat when necessary. The results of this test on representative compounds of the present invention which were obtained using one or two rats, at a dose of 100 mg/kg of body weight appear below in Table I.

[2] = tested on: brain-specific receptors (tritiated benzodiazepine binding, P2-synaptosomal fraction of rat whole cortex); test: Inhibition of the binding of 3H-benzodiazepine to brain-specific receptors of rats; design: species or system Male albino rats (Wistar strain); conditions: 3H-diazepam (1.5 nM) or 3H-flunitrazepam (1.0 nM), pH 7.4, 30 minutes in ice; test concentration not given
Hypoxic Survival Test = assay type: in vivo, Royal Hart mice; conditions: for % Survivors: 10% oxygen, 5 minutes
Protocol: Groups of 20 Royal Hart mice (6 weeks of age) are injected intraperitoneally with 10, 50 or 100 mg/kg of test compound 30 minutes prior to placing them in a hypoxic mixture (10% oxygen in 90% […]) and measuring survival after 5 minutes.
A separate group of 20 mice is injected intraperitoneally with saline solution (0.01 cc/g of body weight) and processed as described above.
Still another group of 20 mice is injected intraperitoneally with 0.125 mg/kg of physostigmine and processed as described above.

## CN1CCN(c2nn3c(-c4cccc(C(F)(F)F)c4)ccnc3c2C#N)CC1 [2-(4-Methyl-1-piperazinyl)-7-[3-(trifluoromethyl)phenyl]pyrazolo[1,5-a]pyrimidine-3-carbonitrile]
[1]
  Mean Arterial Blood Pressure: 139 mm of mercury

## N#Cc1c(N2CCSCC2)nn2c(-c3cccc(C(F)(F)F)c3)ccnc12 [2-(4-Thiomorpholinyl)-7-[3-(trifluoromethyl)phenyl]pyrazolo[1,5-a]pyrimidine-3-carbonitrile]
[1]
  Mean Arterial Blood Pressure: 148 mm of mercury

## N#Cc1c(N2CCN(CCO)CC2)nn2c(-c3cccnc3)ccnc12 [2-[4-(2-Hydroxyethyl)-1-piperazinyl]-7-(3-pyridinyl)pyrazolo[1,5-a]pyrimidine-3-carbonitrile]
[2]
  % Inhibition of the binding of 3H-benzodiazepine: 25%

## N#Cc1c(N2CCN(CCCCOc3ccccc3)CC2)nn2c(-c3cccnc3)ccnc12 [2-[4-(4-Phenoxybutyl)-1-piperazinyl]-7-(3-pyridinyl)pyrazolo[1,5-a]pyrimidine-3-carbonitrile]
[1]
  Mean Arterial Blood Pressure: 144 mm of mercury
[2]
  % Inhibition of the binding of 3H-benzodiazepine: 33%

## N#Cc1c(N2CCN(CCCCOc3ccccc3)CC2)nn2c(-c3cccc(C(F)(F)F)c3)ccnc12 [2-[4-(4-Phenoxybutyl)-1-piperazinyl]-7-[3-(trifluoromethyl)phenyl]pyrazolo[1,5-a]pyrimidine-3-carbonitrile]
[1]
  Mean Arterial Blood Pressure: 147 mm of mercury
[2]
  % Inhibition of the binding of 3H-benzodiazepine: 26%

## N#Cc1c(N2CCN(Cc3ccccc3)CC2)nn2c(-c3cccnc3)ccnc12 [2-[4-(Phenylmethyl)-1-piperazinyl]-7-(3-pyridinyl)pyrazolo[1,5-a]pyrimidine-3-carbonitrile]
[1]
  Mean Arterial Blood Pressure: 124 mm of mercury
Hypoxic Survival Test; 50 mg/kg i.p.
  % Survivors: 40%

## NC(=O)c1c(N2CCN(Cc3ccccc3)CC2)nn2c(-c3cccc(C(F)(F)F)c3)ccnc12 [2-[4-(Phenylmethyl)-1-piperazinyl]-7-[3-(trifluoromethyl)phenyl]pyrazolo[1,5-a]pyrimidine-3-carboxamide]
[2]
  % Inhibition of the binding of 3H-benzodiazepine: 14%

## N#Cc1c(N2CCC(Cc3ccccc3)CC2)nn2c(-c3cccc(C(F)(F)F)c3)ccnc12 [2-[4-(Phenylmethyl)-1-piperidinyl]-7-[3-(trifluoromethyl)phenyl]pyrazolo[1,5-a]pyrimidine-3-carbonitrile]
[1]
  Mean Arterial Blood Pressure: 142 mm of mercury
[2]
  % Inhibition of the binding of 3H-benzodiazepine: 46%

## N#Cc1c(N2CCN(Cc3c(Cl)cccc3Cl)CC2)nn2c(-c3cccnc3)ccnc12 [2-[4-[(2,6-Dichlorophenyl)methyl]-1-piperazinyl]-7-(3-pyridinyl)pyrazolo[1,5-a]pyrimidine-3-carbonitrile]
[1]
  Mean Arterial Blood Pressure: 124 mm of mercury

## N#Cc1c(N2CCN(Cc3c(Cl)cccc3Cl)CC2)nn2c(-c3cccc(C(F)(F)F)c3)ccnc12 [2-[4-[(2,6-Dichlorophenyl)methyl]-1-piperazinyl]-7-[3-(trifluoromethyl)phenyl]pyrazolo[1,5-a]pyrimidine-3-carbonitrile]
[2]
  % Inhibition of the binding of 3H-benzodiazepine: 22%

## N#Cc1c(N2CCN(Cc3cccc(Cl)c3)CC2)nn2c(-c3cccnc3)ccnc12 [2-[4-[(3-Chlorophenyl)methyl]-1-piperazinyl]-7-(3-pyridinyl)pyrazolo[1,5-a]pyrimidine-3-carbonitrile]
[1]
  Mean Arterial Blood Pressure: 137 mm of mercury
[2]
  % Inhibition of the binding of 3H-benzodiazepine: 12%

## N#Cc1c(N2CCN(Cc3cccc(Cl)c3)CC2)nn2c(-c3cccc(C(F)(F)F)c3)ccnc12 [2-[4-[(3-Chlorophenyl)methyl]-1-piperazinyl]-7-[3-(trifluoromethyl)phenyl]pyrazolo[1,5-a]pyrimidine-3-carbonitrile]
[2]
  % Inhibition of the binding of 3H-benzodiazepine: 33%

## COc1cccc(CN2CCN(c3nn4c(-c5cccnc5)ccnc4c3C#N)CC2)c1.Cl [2-[4-[(3-Methoxyphenyl)methyl]-1-piperazinyl]-7-(3-pyridinyl)pyrazolo[1,5-a]pyrimidine-3-carbonitrile, monohydrochloride]
[1]
  Mean Arterial Blood Pressure: 138 mm of mercury
[2]
  % Inhibition of the binding of 3H-benzodiazepine: 18%

## COc1cccc(CN2CCN(c3nn4c(-c5cccc(C(F)(F)F)c5)ccnc4c3C#N)CC2)c1 [2-[4-[(3-Methoxyphenyl)methyl]-1-piperazinyl]-7-[3-(trifluoromethyl)phenyl]pyrazolo[1,5-a]pyrimidine-3-carbonitrile]
[1]
  Mean Arterial Blood Pressure: 140 mm of mercury

## N#Cc1c(N2CCN(Cc3ccc(Cl)cc3)CC2)nn2c(-c3cccnc3)ccnc12 [2-[4-[(4-Chlorophenyl)methyl]-1-piperazinyl]-7-(3-pyridinyl)pyrazolo[1,5-a]pyrimidine-3-carbonitrile]
[1]
  Mean Arterial Blood Pressure: 137 mm of mercury

## N#Cc1c(N2CCN(Cc3ccc(Cl)cc3)CC2)nn2c(-c3cccc(C(F)(F)F)c3)ccnc12 [2-[4-[(4-Chlorophenyl)methyl]-1-piperazinyl]-7-[3-(trifluoromethyl)phenyl]pyrazolo[1,5-a]pyrimidine-3-carbonitrile]
[1]
  Mean Arterial Blood Pressure: 127 mm of mercury
[2]
  % Inhibition of the binding of 3H-benzodiazepine: 15%

## COc1ccc(CN2CCN(c3nn4c(-c5cccc(C(F)(F)F)c5)ccnc4c3C#N)CC2)cc1 [2-[4-[(4-Methoxyphenyl)methyl]-1-piperazinyl]-7-[3-(trifluoromethyl)phenyl]pyrazolo[1,5-a]pyrimidine-3-carbonitrile]
[1]
  Mean Arterial Blood Pressure: 136 mm of mercury
[2]
  % Inhibition of the binding of 3H-benzodiazepine: 18%

## Cc1cc(-c2ccncc2)n2nc(N3CCN(Cc4ccccc4)CC3)c(C#N)c2n1 [5-Methyl-2-[4-(phenylmethyl)-1-piperazinyl]-7-(4-pyridinyl)pyrazolo[1,5-a]pyrimidine-3-carbonitrile]
[1]
  Mean Arterial Blood Pressure: 122 mm of mercury

## N#Cc1c(N2CCN(Cc3ccccc3)CC2)nn2c(-c3cccc(Cl)c3)ccnc12 [7-(3-Chlorophenyl)-2-[4-(phenylmethyl)-1-piperazinyl]pyrazolo[1,5-a]pyrimidine-3-carbonitrile]
[1]
  Mean Arterial Blood Pressure: 147 mm of mercury
Hypoxic Survival Test; 50 mg/kg i.p.
  % Survivors: 47%

## N#Cc1c(N2CCSCC2)nn2c(-c3cccnc3)ccnc12 [7-(3-Pyridinyl)-2-(4-thiomorpholinyl)pyrazolo[1,5-a]pyrimidine-3-carbonitrile]
[1]
  Mean Arterial Blood Pressure: 141 mm of mercury
Hypoxic Survival Test; 100 mg/kg i.p.
  % Survivors: 50%

## N#Cc1c(N2CCN(c3ccccn3)CC2)nn2c(-c3cccnc3)ccnc12 [7-(3-Pyridinyl)-2-[4-(2-pyridinyl)-1-piperazinyl]pyrazolo[1,5-a]pyrimidine-3-carbonitrile]
[1]
  Mean Arterial Blood Pressure: 143 mm of mercury

## N#Cc1c(N2CCN(Cc3ccccc3)CC2)nn2c(-c3ccc(Cl)cc3)ccnc12 [7-(4-Chlorophenyl)-2-[4-(phenylmethyl)-1-piperazinyl]pyrazolo[1,5-a]pyrimidine-3-carbonitrile]
[1]
  Mean Arterial Blood Pressure: 142 mm of mercury

## CN(C)C=NC(=O)c1c(N2CCN(Cc3ccccc3)CC2)nn2c(-c3cccc(C(F)(F)F)c3)ccnc12 [N-[(Dimethylamino)methylene]-2-[4-(phenylmethyl)-1-piperazinyl]-7-[3-(trifluoromethyl)phenyl]pyrazolo-[1,5-a]pyrimidine-3-carboxamide]
[1]
  Mean Arterial Blood Pressure: 103 mm of mercury

## CNC(=O)Oc1ccc2c(c1)[C@]1(C)CCN(C)[C@@H]1N2C [physostigmine, reference compound]
Hypoxic Survival Test; 0.125 mg/kg i.p., 5 minute exposure
  physostigmine treated mice survive: 60-80%
